Laboratory results reported in PubChem BioAssay (NCI).
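1) Cells in 96-well plates. 2) Compound, 48 h, 5 concentrations. 3) Linear interpolation between surrounding doses. 4) Unreached endpoint = highest concentration. Abbreviation: GI50, concentration required for 50% inhibition of growth. Definition used: TGI = concentration required for complete inhibition of growth.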

How the values were obtained:
Test in all cases: NCI anticancer screen, dose series, 48 h
[1] = tested on: T-47D breast
[2] = tested on: MALME-3M melanoma
[3] = tested on: M14 melanoma
[4] = tested on: OVCAR-3 ovarian
[5] = tested on: NCI-H226 lung
[6] = tested on: U251 CNS
[7] = tested on: UACC-257 melanoma
[8] = tested on: ACHN renal
[9] = tested on: NCI-H460 lung
[10] = tested on: PC-3 prostate
[11] = tested on: OVCAR-8 ovarian
[12] = tested on: LOX IMVI melanoma
[13] = tested on: SF-268 CNS
[14] = tested on: RXF 393 renal
[15] = tested on: RPMI-8226 leukemia
[16] = tested on: HCC-2998 colon
[17] = tested on: HT29 colon
[18] = tested on: CAKI-1 renal
[19] = tested on: UO-31 renal
[20] = tested on: HOP-92 NSCLC
[21] = tested on: SNB-75 CNS
[22] = tested on: SN12C renal
[23] = tested on: SK-MEL-28 melanoma
[24] = tested on: IGROV1 ovarian
[25] = tested on: HS 578T breast
[26] = tested on: BT-549 breast
[27] = tested on: SK-OV-3 ovarian
[28] = tested on: HOP-62 NSCLC
[29] = tested on: UACC-62 melanoma
[30] = tested on: CCRF-CEM leukemia
[31] = tested on: SR leukemia
[32] = tested on: HL-60(TB) leukemia
[33] = tested on: SW-620 colon
[34] = tested on: MCF7 breast
[35] = tested on: HCT-15 colon
[36] = tested on: NCI/ADR-RES ovarian
[37] = tested on: A549 NSCLC
[38] = tested on: SNB-19 CNS
[39] = tested on: OVCAR-5 ovarian
[40] = tested on: TK-10 renal
[41] = tested on: OVCAR-4 ovarian
[42] = tested on: NCI-H23 lung
[43] = tested on: DU-145 prostate
[44] = tested on: A498 renal
[45] = tested on: HCT-116 colon
[46] = tested on: EKVX NSCLC
[47] = tested on: MDA-MB-231 breast
[48] = tested on: MDA-MB-435
[49] = tested on: NCI-H522 lung
[50] = tested on: SF-295 CNS
[51] = tested on: MOLT-4 leukemia
[52] = tested on: K-562 leukemia
[53] = tested on: SK-MEL-2 melanoma
[54] = tested on: COLO 205 colon
[55] = tested on: KM12 colon
[56] = tested on: SK-MEL-5 melanoma
[57] = tested on: SF-539 CNS

For `COc1ccc2[nH]c(O)c(/C=c3/cc4c(c(-c5ccc(F)c(OC)c5)n3)=Nc3ccccc3-4)c2c1`, the GI50 [1] was 1.85 µM, the TGI [1] was 3.78 µM and the GI50 [2] was 2.03 µM. For the same molecule, the TGI [2] was 3.92 µM, the GI50 [3] was 2 µM and the TGI [3] was 4.15 µM. The GI50 [4] was 1.99 µM, the TGI [4] was 3.58 µM and the GI50 [5] was 16.4 µM. For the same molecule, the TGI [5] was 33.1 µM, the GI50 [6] was 1.7 µM and the TGI [6] was 3.21 µM. It also gave a GI50 [7] of 2.81 µM, a TGI [7] of 8.86 µM and a GI50 [8] of 3.01 µM. The TGI [8] was 9.86 µM, the GI50 [9] was 1.78 µM and the TGI [9] was 3.41 µM. For the same molecule, the GI50 [10] was 8.11 µM, the TGI [10] was 38.4 µM and the GI50 [11] was 3.22 µM. It also gave a TGI [11] of 11.8 µM, a GI50 [12] of 1.72 µM and a TGI [12] of 3.29 µM. For the same molecule, the GI50 [13] was 3.68 µM, the TGI [13] was 18 µM and the GI50 [14] was 1.53 µM. It also gave a TGI [14] of 3.01 µM, a GI50 [15] of 2.04 µM and a TGI [15] of 5.53 µM. It also gave a GI50 [16] of 2.13 µM, a TGI [16] of 4.62 µM and a GI50 [17] of 2.03 µM. The TGI [17] was 4 µM, the GI50 [18] was 18.2 µM and the TGI [18] was 36.9 µM. The GI50 [19] was 3.86 µM, the TGI [19] was 18.8 µM and the GI50 [20] was 1.5 µM. For the same molecule, the TGI [20] was 6.62 µM, the GI50 [21] was 1.56 µM and the TGI [21] was 3.56 µM. The GI50 [22] was 12.9 µM, the TGI [22] was 30.5 µM and the GI50 [23] was 2.06 µM. The TGI [23] was 4.51 µM, the GI50 [24] was 4.41 µM and the TGI [24] was 17.6 µM. For the same molecule, the GI50 [25] was 1.87 µM, the TGI [25] was 5.04 µM and the GI50 [26] was 1.89 µM. The TGI [26] was 3.91 µM, the GI50 [27] was 11.3 µM and the TGI [27] was 26.2 µM. The GI50 [28] was 2.42 µM, the TGI [28] was 4.88 µM and the GI50 [29] was 1.7 µM. For the same molecule, the TGI [29] was 3.16 µM, the GI50 [30] was 2.13 µM and the TGI [30] was 9.88 µM. The GI50 [31] was 1.86 µM, the TGI [31] was 6.96 µM and the GI50 [32] was 14.4 µM. The TGI [32] was 35.1 µM, the GI50 [33] was 1.77 µM and the TGI [33] was 3.8 µM. The GI50 [34] was 1.76 µM, the TGI [34] was 4.44 µM and the GI50 [35] was 2.36 µM. The TGI [35] was 5.63 µM, the GI50 [36] was 2.56 µM and the TGI [36] was 11.2 µM. It also gave a GI50 [37] of 4.37 µM, a TGI [37] of 19.3 µM and a GI50 [38] of 2.85 µM. It also gave a TGI [38] of 11.6 µM, a GI50 [39] of 3.56 µM and a TGI [39] of 10.8 µM. For the same molecule, the GI50 [40] was 2.91 µM, the TGI [40] was 6.95 µM and the GI50 [41] was 3.53 µM. It also gave a TGI [41] of 16.3 µM, a GI50 [42] of 4.68 µM and a TGI [42] of 38.2 µM. The GI50 [43] was 4.11 µM, the TGI [43] was 32.6 µM and the GI50 [44] was 4.42 µM. For the same molecule, the TGI [44] was 19.2 µM, the GI50 [45] was 1.82 µM and the TGI [45] was 3.37 µM. The GI50 [46] was 8.71 µM, the TGI [46] was 36 µM and the GI50 [47] was 1.47 µM. For the same molecule, the TGI [47] was 3.14 µM, the GI50 [48] was 2.39 µM and the TGI [48] was 6.01 µM. The GI50 [49] was 1.81 µM, the TGI [49] was 4.14 µM and the GI50 [50] was 2.26 µM. It also gave a TGI [50] of 6.51 µM, a GI50 [51] of 2.3 µM and a TGI [51] of 5.68 µM. It also gave a GI50 [52] of 3.16 µM, a TGI [52] of 10.2 µM and a GI50 [53] of 2.23 µM. It also gave a TGI [53] of 5.41 µM, a GI50 [54] of 2.56 µM and a TGI [54] of 5.87 µM. It also gave a GI50 [55] of 2.58 µM, a TGI [55] of 7.3 µM and a GI50 [56] of 3.07 µM. For the same molecule, the TGI [56] was 22 µM, the GI50 [57] was 1.86 µM and the TGI [57] was 3.37 µM.
